Literature values, collected in patent US20190167675A1, “METHODS AND COMPOSITIONS FOR APPETITE CONTROL AND WEIGHT MANAGEMENT” (SHANGHAI YAO YUAN BIOTECHNOLOGY CO., LTD., priority 2016, published 2019).

How the values were obtained:
[1] = system: ASIC3; settings: in vivo; cited from earlier work
[2] = molecular target: T1, ASIC3 (Homo sapiens, UniProt Q9UHC3); settings: cited from earlier work
T1 sequence (Q9UHC3 1-531): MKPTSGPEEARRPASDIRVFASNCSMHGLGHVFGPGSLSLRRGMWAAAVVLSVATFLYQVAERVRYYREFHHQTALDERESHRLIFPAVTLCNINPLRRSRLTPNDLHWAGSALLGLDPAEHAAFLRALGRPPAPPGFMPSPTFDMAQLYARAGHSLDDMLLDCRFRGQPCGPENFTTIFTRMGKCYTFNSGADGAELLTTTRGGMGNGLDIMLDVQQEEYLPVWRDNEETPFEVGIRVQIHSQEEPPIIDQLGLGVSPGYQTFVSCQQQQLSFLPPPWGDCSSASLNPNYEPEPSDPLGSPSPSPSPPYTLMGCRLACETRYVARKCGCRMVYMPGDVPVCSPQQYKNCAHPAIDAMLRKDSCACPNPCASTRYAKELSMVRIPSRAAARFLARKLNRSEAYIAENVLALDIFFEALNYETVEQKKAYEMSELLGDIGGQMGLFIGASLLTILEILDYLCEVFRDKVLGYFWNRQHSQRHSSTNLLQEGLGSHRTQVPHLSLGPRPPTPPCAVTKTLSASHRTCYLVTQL

In the case of `Cc1nc(NC(=N)N)nc2ccccc12` [GMQ, 2-guanidine-4-methylquinazoline], the pain related behavior [1] is given as “induces pain related behavior” and the ASIC3 currents [2] is given as “induces persistent ASIC3 currents”.
